# Assay results as given in ChEMBL document CHEMBL1146026, “Novel, potent, selective, and orally bioavailable human betaII-tryptase inhibitors” (Bioorg Med Chem Lett, 2006).
# pKi: −log10 of the molar value.
# Tests used:
# Trypsin = Trypsin (Homo sapiens, UniProt P07477+P07478+P35030); test: Binding affinity to trypsin; type: protein assay
# Tryptase beta-1 [1] = molecular target: T1, Tryptase beta-1 (Homo sapiens, UniProt Q15661); test: Binding affinity to human tryptase beta2
# [2] = Oral bioavailability in iv or po dosed rat; type: ADME, organism-based; conditions: in vivo
# [3] = Clearance in iv or po dosed rat; type: ADME, organism-based; conditions: in vivo
# Tryptase [4] = molecular target: Tryptase (Canis lupus familiaris, UniProt P15944); test: Binding affinity to dog tryptase
# Sequence of Tryptase (Canis lupus familiaris, UniProt P15944) (P15944 whole entry): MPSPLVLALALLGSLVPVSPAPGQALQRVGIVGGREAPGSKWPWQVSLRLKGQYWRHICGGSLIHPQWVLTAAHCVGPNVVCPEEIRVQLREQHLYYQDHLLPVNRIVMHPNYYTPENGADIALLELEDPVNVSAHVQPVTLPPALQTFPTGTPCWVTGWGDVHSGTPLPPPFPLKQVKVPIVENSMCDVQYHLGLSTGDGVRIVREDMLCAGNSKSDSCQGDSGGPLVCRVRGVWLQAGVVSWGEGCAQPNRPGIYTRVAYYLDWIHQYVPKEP
# [5] = Oral absorption in iv or po dosed rat; type: ADME, organism-based; conditions: in vivo
# [6] = Mean residence time in iv or po dosed rat; type: ADME, organism-based; conditions: in vivo, read-out: Vdss
# [7] = Bioavailability in ip dosed mouse; type: ADME, organism-based; conditions: in vivo
# [8] = AUC in iv or po dosed rat; type: ADME, organism-based; conditions: plasma
# Tryptase beta-1 [9] = molecular target: T1, Tryptase beta-1; test: Binding affinity to recombinant cynomolgus monkey tryptase
# [10] = Binding affinity to elastase; parameters: species or system Homo sapiens
# Tryptase [11] = molecular target: T2, Tryptase (Rattus norvegicus, UniProt P27435); test: Binding affinity to rat tryptase
# T2 sequence (P27435 whole entry): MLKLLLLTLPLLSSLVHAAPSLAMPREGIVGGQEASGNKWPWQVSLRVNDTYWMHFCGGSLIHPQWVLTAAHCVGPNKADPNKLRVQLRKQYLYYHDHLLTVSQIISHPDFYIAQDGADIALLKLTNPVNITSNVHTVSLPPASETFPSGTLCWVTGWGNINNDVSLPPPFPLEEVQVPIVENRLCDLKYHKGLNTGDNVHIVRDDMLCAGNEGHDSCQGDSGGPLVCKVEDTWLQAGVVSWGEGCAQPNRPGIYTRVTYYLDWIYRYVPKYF
# [12] = Cmax in iv or po dosed rat; type: ADME, organism-based; conditions: in vivo
# [13] = Volume of distribution in iv or po dosed rat; type: ADME, organism-based; conditions: in vivo, read-out: Vc
# Tryptase [14] = molecular target: T3, Tryptase (Mus musculus, UniProt Q02844); test: Binding affinity to mouse tryptase
# T3 sequence (Q02844 whole entry): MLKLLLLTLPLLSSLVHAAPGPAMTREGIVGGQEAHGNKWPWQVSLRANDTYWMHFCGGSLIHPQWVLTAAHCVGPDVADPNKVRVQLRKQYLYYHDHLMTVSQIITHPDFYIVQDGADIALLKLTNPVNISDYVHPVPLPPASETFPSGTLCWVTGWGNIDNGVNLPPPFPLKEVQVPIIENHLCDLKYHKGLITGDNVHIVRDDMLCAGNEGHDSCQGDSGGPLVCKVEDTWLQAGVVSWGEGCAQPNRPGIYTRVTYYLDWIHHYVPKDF
# T1 sequence (Q15661 whole entry): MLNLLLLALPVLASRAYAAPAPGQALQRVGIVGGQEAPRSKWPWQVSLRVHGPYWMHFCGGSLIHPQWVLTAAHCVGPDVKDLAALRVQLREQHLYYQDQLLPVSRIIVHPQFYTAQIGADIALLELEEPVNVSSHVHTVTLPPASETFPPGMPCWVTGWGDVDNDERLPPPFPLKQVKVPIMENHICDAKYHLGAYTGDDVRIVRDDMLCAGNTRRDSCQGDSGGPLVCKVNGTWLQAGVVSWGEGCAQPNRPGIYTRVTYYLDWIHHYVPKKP
SMILES,Ki app (Trypsin),pKi (Tryptase beta-1 [1]),also measured
NCCCC[C@H](NC(=O)OCc1ccccc1)C(=O)c1noc(Cc2ccc(OCc3ccccc3)cc2)n1,24 nM,6.74,–
COc1ccc(CCOc2ccc(Cc3nc(C(=O)[C@H](CCCCN)NC(=O)OCc4ccccc4)no3)cc2)cc1OC,11 nM,7.62,–
NCCCC[C@H](NC(=O)OCc1ccccc1)C(=O)c1noc(Cc2ccc(OCCC3CCCCC3)cc2)n1,1000 nM,5.96,–
NCCCC[C@H](NC(=O)OCc1ccccc1)C(=O)c1noc(Cc2ccc(OCCc3cccc4ccccc34)cc2)n1,95 nM,7.11,–
CCOC(=O)N[C@@H](CCCCN)C(=O)c1noc(Cc2ccc(OCCc3ccccc3)cc2)n1,–,–,bioavailability [2]: 8.4%; clearance [3]: 93 mL/min/kg; pKi (Tryptase [4]): 6.42; Fa [5]: 18%; Vd [6]: 7 L/kg; bioavailability [7]: 68%; AUC [8]: 0.183 µM·h; pKi (Tryptase beta-1 [9]): 7.33; pKi [10]: < 3.82; pKi (Tryptase [11]): 8.26; Cmax [12]: 590 nM; Vd [13]: 0.91 L/kg; pKi (Tryptase [14]): 7.36
NCCCC[C@H](NC(=O)OCc1ccccc1)C(=O)c1noc(Cc2ccc(OCCc3ccc(F)cc3)cc2)n1,110 nM,7.80,–
NCCCC[C@H](NC(=O)OCc1ccccc1)C(=O)c1noc(Cc2ccc(OCCc3ccc(Cl)cc3)cc2)n1,270 nM,7.85,–
NCCCC[C@H](NC(=O)OCc1ccccc1)C(=O)c1noc(Cc2ccc(OCCc3ccc4ccccc4c3)cc2)n1,140 nM,7.57,–

# Further lines, with some results ahead:
Ki app (Trypsin),pKi (Tryptase beta-1 [1]),SMILES,also measured
190 nM,7.89,NCCCC[C@H](NC(=O)OCc1ccccc1)C(=O)c1noc(Cc2ccc(OCCc3cccc(Cl)c3)cc2)n1,–
41 nM,7.60,NCCCC[C@H](NC(=O)OCc1ccccc1)C(=O)c1noc(Cc2ccc(OCCCc3ccccc3)cc2)n1,–
34 nM,7.72,COc1ccc(CCOc2ccc(Cc3nc(C(=O)[C@H](CCCCN)NC(=O)OCc4ccccc4)no3)cc2)cc1,–
280 nM,8.00,NCCCC[C@H](NC(=O)OCc1ccccc1)C(=O)c1noc(Cc2ccc(OCCc3ccc(Cl)c(Cl)c3)cc2)n1,–
92 nM,6.92,NCCCC[C@H](NC(=O)OCc1ccccc1)C(=O)c1noc(Cc2cccc(OCCCc3ccccc3)c2)n1,–
68 nM,5.57,NCCC[C@H](NC(=O)OCc1ccccc1)C(=O)c1noc(Cc2ccccc2)n1,–
59 nM,7.39,COc1cccc(CCOc2ccc(Cc3nc(C(=O)[C@H](CCCCN)NC(=O)OCc4ccccc4)no3)cc2)c1,–
410 nM,7.02,NCCCC[C@H](NC(=O)OCc1ccccc1)C(=O)c1noc(Cc2ccc(OCCc3ccc(Cl)cc3Cl)cc2)n1,–
82 nM,6.44,NCCCC[C@H](NC(=O)OCc1ccccc1)C(=O)c1noc(Cc2cccc(OCCc3ccccc3)c2)n1,–
35 nM,–,NCCCC[C@H](NC(=O)OCc1ccccc1)C(=O)c1noc(Cc2ccc(OCCc3ccccc3)cc2)n1,–
